Patent US11028103B2, “Derivatized 3-styryl-cephalosporins” (priority 2013, dated 2021)

Legend:
Assay type in all cases: biochemical
[1] = molecular target: T1, NDM-1 (Klebsiella pneumoniae, UniProt C7C422); assay: 10 minute IC50 β-lactamase inhibition assay (Chromacef hydrolysis); conditions: 10 min preincubation, 300 μM Chromacef, pH 7.0, 30° C.
T1 construct: made in house
Excerpt: (§1) A chromogenic cephalosporin, Chromacef, is synthesized and isolated as described by Yu, et al. (Yu S; Vosbeek, A; Corbella, K; Severson, J; Schesser, J; and Sutton, L D. A chromogenic cephalosporin for fJ-lactamase inhibitor screening assays (2012) Analytical Biochemistry, 438, 96-98) and used to monitor β-lactamase activity. β-Lactamase enzymes are isolated from bacteria by methods known to those knowledgeable in the art. A typical assay monitors the hydrolysis of Chromacef via the formation of a species which absorbs maximally at 442 nm (molar extinction coefficient=14,500). Absorption is monitored as a function of time in buffer (either 50 mM, pH 7.0 sodium phosphate or 100 mM, pH 7.0 Trisma buffer supplemented with 100 μM ZnCl2), 100-300 μM Chromacef and 1-3 volume percent DMSO cosolvent at 30° C. using a spectrophotometer having thermal-regulated cuvette holder. The assay is initiated by addition and mixing of an appropriate amount of β-lactamase.
(§2) The 100% activity control is performed as described above using 300 μM Chromacef, 3 volume percent DMSO cosolvent in buffer (either 50 mM, pH 7.0 sodium phosphate or 100 mM, pH 7.0 Trisma buffer supplemented with 100 μM ZnCl2) at 30° C. The reaction is initiated by addition and mixing of an appropriate amount of β-lactamase and the formation of product is followed as a function of time by monitoring the increase in absorbance at 442 nm as a function of time. The reaction is followed through <10% completeness and the initial rate determined via linear least squares analysis where the slope is the initial rate.
(§3) Ten-minute inhibition assays are performed as described above using 50-500 μM inhibitor cephalosporin, 0.5-5 volume percent DMSO cosolvent, and the same amount of enzyme as used in the control assay in buffer (either 50 mM, pH 7.0 sodium phosphate or 100 mM, pH 7.0 Trisma buffer supplemented with 100 μM ZnCl2) at 30° C. The reaction is initiated by after 10 minutes points by the addition and mixing of an appropriate amount of Chromacef to give a 300 μM concentration and the formation of product is followed as a function of time by monitoring the increase in absorbance at 442 nm as a function of time. The reaction is followed through <10% completeness and the initial rate determined via linear least squares analysis where the slope is the initial rate.

[2] = molecular target: T2, IMP-1 (Serratia marcescens, UniProt P52699); assay: as above; conditions: 10 min preincubation, 300 μM Chromacef, pH 7.0, 30° C.
T2 construct: made in house
T2 sequence (P52699 19-246, looked up, species assumed): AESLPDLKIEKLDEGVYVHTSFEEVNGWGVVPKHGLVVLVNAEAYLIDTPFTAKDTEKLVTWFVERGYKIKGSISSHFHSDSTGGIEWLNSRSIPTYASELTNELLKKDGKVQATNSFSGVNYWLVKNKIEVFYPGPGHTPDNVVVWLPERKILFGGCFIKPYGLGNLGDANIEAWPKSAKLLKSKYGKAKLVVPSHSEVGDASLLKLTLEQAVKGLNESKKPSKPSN
Excerpt: as §1, §2, §3

[3] = molecular target: T3, VIM-2 (Escherichia coli, UniProt Q5U7L7); assay: as above; conditions: 10 min preincubation, 300 μM Chromacef, pH 7.0, 30° C.
T3 construct: made in house
Excerpt: as §1, §2, §3

[4] = molecular target: T1, NDM-1; assay: Assay for determining irreversible β-lactamase inhibition (500-fold dilution); conditions: FIG. 2
Protocol: as §2
Inhibition of β-lactamase was performed at a concentration of β-lactamase 500 times greater than used in the control assay, and 50-500 μM cephalosporin inhibitor, buffer (either 50 mM, pH 7.0 sodium phosphate or 100 mM, pH 7.0 Trisma buffer supplemented with 100 μM ZnCl2), 0.5-5 volume percent DMSO cosolvent for various times. Activity assays were performed the same as the control reaction except 2.00 μL of this inhibition solution were substituted for the uninhibited enzyme solution resulting in a 500-fold dilution of inhibitor to eliminate any competitive binding of inhibitor to enzyme.

[5] = molecular target: T4, KPC-3 (Klebsiella pneumoniae, UniProt Q9F663, H272Y); assay: 10 minute IC50 β-lactamase inhibition assay (Chromacef hydrolysis); conditions: 10 min preincubation, 300 μM Chromacef, pH 7.0, 30° C.
T4 construct: made in house
T4 sequence (Q9F663 25-293 H272Y): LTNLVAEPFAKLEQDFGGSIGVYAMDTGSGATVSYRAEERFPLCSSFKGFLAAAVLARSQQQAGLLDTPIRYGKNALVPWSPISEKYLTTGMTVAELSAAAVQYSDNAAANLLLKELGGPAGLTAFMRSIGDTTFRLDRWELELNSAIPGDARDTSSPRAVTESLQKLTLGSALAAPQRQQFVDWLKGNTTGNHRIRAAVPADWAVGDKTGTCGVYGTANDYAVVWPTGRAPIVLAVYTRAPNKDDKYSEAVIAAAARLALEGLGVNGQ
Excerpt: as §1, §2, §3

T1 sequence (C7C422 29-270, looked up, species assumed): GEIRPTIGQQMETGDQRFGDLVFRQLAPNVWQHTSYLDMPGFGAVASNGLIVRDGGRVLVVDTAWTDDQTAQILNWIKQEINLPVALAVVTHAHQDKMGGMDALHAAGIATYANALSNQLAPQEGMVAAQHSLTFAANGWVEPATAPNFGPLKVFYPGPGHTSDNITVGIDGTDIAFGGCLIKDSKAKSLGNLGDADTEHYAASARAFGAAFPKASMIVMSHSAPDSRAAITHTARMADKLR

`O=C(Cc1ccccc1)NC1C(=O)N2C(C(=O)O)=C(C=Cc3ccc(CCl)cc3)CS[C@H]12` (some centres unmarked) [II-Cl/benzyl, 3-(4-(chloromethyl)styryl)-7-(2-phenylacetamido)-ceph-3-em-4-carboxylic acid] gave an IC50 [1] of 6.4 µM, an IC50 [2] of 61.8 µM and an IC50 [3] of 10.7 µM.

In the case of `O=C(Cc1ccccc1)NC1C(=O)N2C(C(=O)O)=C(C=Cc3ccc(CCl)cc3[N+](=O)[O-])CS[C@H]12` (some centres unmarked) [III-Cl/benzyl, 3-(2-nitro-4-(chloromethyl)styryl)-7-(2-phenylacetamido)-ceph-3-em-4-carboxylic acid], the “irreversibility of the inhibition” value ([4]; activity after 500-fold dilution of inhibitor) is reported as “irreversibility of the inhibition”, the “time-dependency of the inhibition” value ([4]; various incubation times) is reported as “time-dependency of the inhibition” and the IC50 [1] is reported as 0.584 µM. The IC50 [2] was 0.584 µM and the IC50 [5] was 0.973 µM.
